Data taken from ChEMBL document CHEMBL5727820, “Substituted carbonucleoside derivatives useful as anticancer agents” (2020).
“And” between values parts separate entries of the source, which are not always exact repeats. Equal entries are not always repeated.

Experiment: Biochemical Assay: Compounds were solubilized in DMSO and serially diluted, using 3-fold dilutions, into 100% DMSO at a concentration 50-fold greater than the desired assay concentration. Following dilution, 1 ul was added to an empty 96-well microtiter plate. PRMT5/MEP50 protein complex was combined with H4(1-21) peptide ([…]) in PRMT5 assay buffer (50 mM Tris pH 8.5, 50 mM NaCl, 5 mM MgCl2, 1 mM EDTA, 1 mM TCEP) and 44 ul was added to the microtiter plate containing compound. S-Adenosyl-L-methionine (SAM) was prepared by combining 3H labelled SAM with unlabelled SAM in PRMT5 assay buffer such that the final SAM concentration was 10 uM and the specific activity was 0.2 uCi/ul. The reaction was initiated by adding 5 ul of SAM stock to the microtiter plate. The final reaction conditions were 10 nM PRMT5/MEP50 complex, 200 nM peptide and 1 uM SAM. Following a 25 minute incubation at room temperature, the reaction was stopped with the addition of 100 uL of 20% TCA. The 3H-peptide product was captured using a 96-well filter plate (MSIPN4B, Millipore) and washed 5 times with PBS buffer. Scintillation fluid (100 ul) was added to the dried filter plate and counted in a liquid scintillation counter. IC50 values were determined by fitting the data to the standard 4-parameter dose response equation using Pfizer proprietary software.

Row | Compound | IC50
1 | Cc1ncnc2c1ccn2[C@@H]1C[C@H](Oc2ccc(F)cc2[C@@H](C)N)[C@@H](O)[C@H]1O | 2 nM
2 | Cc1cccc(CC(O)[C@H]2C[C@@H](n3ccc4c(C)ncnc43)[C@H](O)[C@@H]2O)n1 (some centres not stated) | > 200000 nM
3 | CO[C@@H]1C[C@H](n2ccc3c(C)ncnc32)[C@H](O)[C@@H]1O | 2120 nM
4 | O[C@@H]1[C@H](O)[C@@H](Oc2cccc3c2CNCC3)C[C@H]1n1cc(F)c2c(Cl)ncnc21 | 2 nM
5 | Cc1ncnc2c1ccn2[C@@H]1C[C@H]([C@@H](CN)c2ccc(F)cc2)[C@@H](O)[C@H]1O | 676 nM
6 | Cc1nc(N)c2c(C)cn([C@@H]3C[C@H](Oc4cc(F)c(F)c5c4CNCC5)[C@@H](O)[C@H]3O)c2n1 | 1 nM
7 | Cc1ncnc2c1ccn2[C@@H]1C[C@H]([C@@H](F)c2ccc(F)cc2)[C@@H](O)[C@H]1O | 3 nM
8 | Cc1cc(N[C@@H]2C[C@H](Oc3ccccc3C#N)[C@@H](O)[C@H]2O)ncn1 | > 200000 nM
9 | Cc1cn([C@@H]2C[C@H](Oc3ccc(F)c4c3CNCC4)[C@@H](O)[C@H]2O)c2ncnc(Cl)c12 | 1 nM
10 | CN(c1ncnc(N)n1)[C@@H]1C[C@@H]([C@H](O)c2ccc(F)c(F)c2)[C@@H](O)[C@H]1O | 15700 nM
11 | Cc1nccc(N[C@@H]2C[C@H]([C@H](O)c3ccc(F)c(F)c3)[C@@H](O)[C@H]2O)n1 | 150 nM
12 | Cc1cc(N[C@@H]2C[C@H]([C@H](O)c3ccc(F)c(F)c3)[C@@H](O)[C@H]2O)ncn1 | 3580 nM
13 | Cc1nc(N)nc2c1ccn2[C@@H]1C[C@H]([C@@H](O)c2ccc(F)c(F)c2)[C@@H](O)[C@H]1O | 5 nM
14 | Cc1cc(N[C@@H]2C[C@H]([C@@H](O)c3ccc(F)c(F)c3)[C@@H](O)[C@H]2O)ncn1 | 59500 nM
15 | Cc1ncnc2c1ccn2[C@@H]1C[C@H](Oc2cc(C(F)F)c(F)c3c2CNCC3)C(O)=C1O | 1 nM
16 | Nc1ncnc2c1c(F)cn2[C@@H]1C[C@H](Oc2cccc3c2CNCC3)[C@@H](O)[C@H]1O | 8 nM and 28 nM
17 | Cc1ncnc2c1ccn2[C@@H]1CC([C@](C)(O)c2ccc(F)cc2)[C@@H](O)[C@H]1O (some centres not stated) | 17100 nM
18 | Cc1ncnc2c1ccn2[C@@H]1C[C@H](Oc2ccc(F)c3c2CNC[C@@H]3C)[C@@H](O)[C@H]1O | 2 nM
19 | CN(c1ccncn1)[C@@H]1C[C@@H]([C@H](O)c2ccc(F)c(F)c2)[C@@H](O)[C@H]1O | 15700 nM
20 | Cc1ncnc2c1ccn2[C@@H]1C[C@H](Oc2ccccc2CN)[C@@H](O)[C@H]1O | 1060 nM
21 | Cc1cc(N[C@H]2C[C@@H](Oc3ccccc3C#N)[C@H](O)[C@@H]2O)ncn1 | > 200000 nM
22 | CN(c1ccncn1)[C@@H]1C[C@H]([C@@H](O)c2ccc(F)c(F)c2)[C@@H](O)[C@H]1O | 466 nM
23 | Cc1ncnc2c1ccn2C1C[C@H](Oc2cccc3c2CNCC3)[C@@H](O)[C@H]1O (some centres not stated) | 1 nM
24 | Cc1ncnc2c1ccn2[C@@H]1C[C@H](Oc2ccc(F)cc2[C@H](C)N)[C@@H](O)[C@H]1O | 123 nM

Row | Compound | IC50
25 | CN(c1cc(N)ncn1)[C@@H]1C[C@@H]([C@H](O)c2ccc(F)c(F)c2)[C@@H](O)[C@H]1O | 17000 nM
26 | Cc1nc(N)nc2c1ccn2[C@@H]1C[C@@H]([C@H](O)c2ccc(F)c(F)c2)[C@@H](O)[C@H]1O | 105 nM
27 | N#Cc1cccc2c(N[C@@H]3C[C@H](C(O)c4ccc(F)c(F)c4)[C@@H](O)[C@H]3O)ncnc12 (some centres not stated) | > 200000 nM
28 | Cc1ncnc2c1ccn2[C@@H]1C[C@H]([C@@H](O)c2ccc(F)cc2)[C@@H](O)[C@H]1O | 289 nM
29 | Cc1ncnc2c1ccn2[C@@H]1CC([C@@](C)(O)c2ccc(F)cc2)[C@@H](O)[C@H]1O (some centres not stated) | 64 nM
30 | N#Cc1cccc2c(N[C@H]3C[C@H](C(O)c4ccc(F)c(F)c4)[C@@H](O)[C@H]3O)ncnc12 (some centres not stated) | > 200000 nM
31 | Nc1ncnc2c1ccn2[C@@H]1C[C@@H]([C@H](O)c2ccc(Cl)c(F)c2)[C@@H](O)[C@H]1O | 71 nM
32 | CN(c1ncnc(N)n1)[C@@H]1C[C@H]([C@@H](O)c2ccc(F)c(F)c2)[C@@H](O)[C@H]1O | 266 nM
33 | O[C@@H]1[C@H](O)[C@@H]([C@@H](O)c2ccc(F)c(F)c2)C[C@H]1Nc1ncnc2[nH]ccc12 | 449 nM
34 | CN(c1cc(N)ncn1)[C@@H]1C[C@H]([C@@H](O)c2ccc(F)c(F)c2)[C@@H](O)[C@H]1O | 879 nM
35 | Cc1ncnc2c1ccn2[C@@H]1C[C@@H]([C@H](CN)c2ccc(F)cc2)[C@@H](O)[C@H]1O | 906 nM
36 | Cc1ncnc2c1ccn2[C@@H]1C[C@H](Oc2ccc(F)c3c2CNC[C@H]3C)[C@@H](O)[C@H]1O | 1 nM
37 | Nc1ncnc2c1ccn2[C@@H]1C[C@H]([C@@H](O)c2ccc(Cl)c(F)c2)[C@@H](O)[C@H]1O | 572 nM
38 | Cc1ncnc(N(C)[C@@H]2C[C@@H]([C@H](O)c3ccc(F)c(F)c3)[C@@H](O)[C@H]2O)n1 | 29500 nM
39 | Cc1ncnc2c1ccn2[C@@H]1C[C@H]([C@H](F)c2ccc(F)cc2)[C@@H](O)[C@H]1O | 217 nM
40 | Cc1ncnc2c1ccn2[C@@H]1C[C@H]([C@](F)(CN)c2ccc(F)cc2)[C@@H](O)[C@H]1O | 18900 nM
41 | Cc1cc(N[C@H]2C[C@@H](Oc3ccc(F)cc3C#N)[C@H](O)[C@@H]2O)ncn1 | > 200000 nM
42 | CO[C@H]1C[C@H](n2ccc3c(C)ncnc32)[C@H](O)[C@@H]1O | 5740 nM
43 | Cc1ncnc2c1ccn2[C@H]1C[C@@H](Oc2ccccc2CN)[C@H](O)[C@@H]1O | 25 nM
44 | O[C@@H]1[C@H](O)[C@H]([C@H](O)c2ccc(F)c(F)c2)C[C@H]1Nc1ncnc2[nH]ccc12 | 5770 nM
45 | COC(=O)c1cc(F)ccc1O[C@H]1C[C@@H](n2ccc3c(C)ncnc32)[C@H](O)[C@@H]1O | 10200 nM
46 | Cc1ncnc(N(C)[C@@H]2C[C@H]([C@@H](O)c3ccc(F)c(F)c3)[C@@H](O)[C@H]2O)n1 | 297 nM
47 | Cc1cc(N[C@@H]2C[C@H](Oc3ccc(F)cc3C#N)[C@@H](O)[C@H]2O)ncn1 | > 200000 nM
